The numbers were not newly measured in US6903136B2, “Food supplements containing 4-hydroxyisoleucine and creatine” (Experimental and Applied Sciences, Inc., priority 2002, dated 2005), which cites them from elsewhere.

Each structure is given as a SMILES string.

Data set [1] concerns insulinotropic activity.
In data set [2] the test system is insulinotropic activity. As to conditions: normal and diabetic rats; intravenous and oral delivery.
Data set [3] concerns secretion of insulin. Conditions: in vitro.

Regarding `CC(O)C(C)C(N)C(=O)O` (single isomer, unassigned) [(2R, 3R, 4S) isomer], the “activity as an insulinotropic agent” value in data set [1] is “inactive”.

On to `C[C@@H]([C@H](C)O)[C@H](N)C(=O)O` (single isomer, unassigned) [(2S, 3R, 4S) stereoisomer of 4OH-Ile], for which the “activity as an insulinotropic agent” value in data set [1] is given as “active”. The “activity as an insulinotropic agent relative to leucine, isoleucine, or homoserine” value in data set [1] (fold more active than leucine, isoleucine, or homoserine) is given as “at least 15 ×”.

As to `CC(O)[C@H](C)[C@H](N)C(=O)O` (stereo partly shown) [Example 4OH-Ile, 4-Hydroxyisoleucine], the “insulinotropic activity in vivo” value in data set [2] was “verified the insulinotropic activity in vivo”. Besides, the “effect on secretion of insulin” value in data set [3] (normal blood glucose levels) is listed as “does not affect the secretion of insulin”. Further, the insulinotropic activity entry in data set [3] (supranormal glucose levels) is reported as “strong insulinotropic activity”.

As for `CC1OC(=O)C(N)C1C` (stereo not shown) [lactone form of 4OH-Ile], the “activity as an insulinotropic agent” value in data set [1] is “not active”.
